According to patent US11638712B2, “Bis(acetamidophenyl) guanidinophenylethylphosphonates for use in the prevention and/or treatment of PAR-related diseases” (Universiteit Antwerpen, priority 2016, dated 2023):
Like-named read-outs stand apart in the source and are kept apart here.

Assays:
tPA = tPA (Homo sapiens, UniProt P00750); test: in vitro serine protease inhibition profile: tPA; format: biochemical
plasmin = molecular target: T1, plasmin (Homo sapiens, UniProt P00747); test: in vitro serine protease inhibition profile: plasmin; format: biochemical
T1 construct: panel of serine proteases: uPA, tPA, thrombin, plasmin, FXIIa
T1 sequence (P00747 581-810 limits assumed, species assumed): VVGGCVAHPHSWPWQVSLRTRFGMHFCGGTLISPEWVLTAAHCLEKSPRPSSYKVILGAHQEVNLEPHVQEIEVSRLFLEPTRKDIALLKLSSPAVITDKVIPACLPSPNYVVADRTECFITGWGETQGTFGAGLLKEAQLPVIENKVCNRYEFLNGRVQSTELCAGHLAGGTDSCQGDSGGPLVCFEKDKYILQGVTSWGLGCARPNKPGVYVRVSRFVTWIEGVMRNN
T1 sequence (P00747 97-580 partner limits assumed, species assumed): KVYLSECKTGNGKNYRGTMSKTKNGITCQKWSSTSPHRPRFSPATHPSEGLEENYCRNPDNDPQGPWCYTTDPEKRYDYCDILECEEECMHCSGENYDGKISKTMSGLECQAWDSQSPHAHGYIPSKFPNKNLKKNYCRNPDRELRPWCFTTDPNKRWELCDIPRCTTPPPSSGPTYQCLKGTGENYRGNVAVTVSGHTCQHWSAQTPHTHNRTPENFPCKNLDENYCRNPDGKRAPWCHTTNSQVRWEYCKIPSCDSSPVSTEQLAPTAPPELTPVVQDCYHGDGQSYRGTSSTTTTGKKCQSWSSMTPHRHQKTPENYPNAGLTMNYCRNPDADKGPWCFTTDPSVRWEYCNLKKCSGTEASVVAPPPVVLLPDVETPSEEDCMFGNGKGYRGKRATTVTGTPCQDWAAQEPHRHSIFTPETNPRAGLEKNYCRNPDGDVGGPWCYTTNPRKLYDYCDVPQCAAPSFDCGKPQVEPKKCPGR

tryptase = tryptase (Homo sapiens, UniProt Q15661); test: in vitro serine protease inhibition profile: tryptase; format: biochemical
Sequence of tryptase (Q15661 31-275): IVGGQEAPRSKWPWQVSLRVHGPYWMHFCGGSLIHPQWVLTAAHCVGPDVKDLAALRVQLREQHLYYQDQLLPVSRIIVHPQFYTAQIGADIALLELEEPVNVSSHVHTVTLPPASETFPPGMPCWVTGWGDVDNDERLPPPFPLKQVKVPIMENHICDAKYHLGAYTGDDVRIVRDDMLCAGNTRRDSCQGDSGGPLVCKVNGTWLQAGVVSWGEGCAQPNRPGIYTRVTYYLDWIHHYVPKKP

matriptase = molecular target: T2, matriptase (Homo sapiens, UniProt Q9Y5Y6); test: in vitro serine protease inhibition profile: matriptase; format: biochemical
T2 sequence (Q9Y5Y6 1-855): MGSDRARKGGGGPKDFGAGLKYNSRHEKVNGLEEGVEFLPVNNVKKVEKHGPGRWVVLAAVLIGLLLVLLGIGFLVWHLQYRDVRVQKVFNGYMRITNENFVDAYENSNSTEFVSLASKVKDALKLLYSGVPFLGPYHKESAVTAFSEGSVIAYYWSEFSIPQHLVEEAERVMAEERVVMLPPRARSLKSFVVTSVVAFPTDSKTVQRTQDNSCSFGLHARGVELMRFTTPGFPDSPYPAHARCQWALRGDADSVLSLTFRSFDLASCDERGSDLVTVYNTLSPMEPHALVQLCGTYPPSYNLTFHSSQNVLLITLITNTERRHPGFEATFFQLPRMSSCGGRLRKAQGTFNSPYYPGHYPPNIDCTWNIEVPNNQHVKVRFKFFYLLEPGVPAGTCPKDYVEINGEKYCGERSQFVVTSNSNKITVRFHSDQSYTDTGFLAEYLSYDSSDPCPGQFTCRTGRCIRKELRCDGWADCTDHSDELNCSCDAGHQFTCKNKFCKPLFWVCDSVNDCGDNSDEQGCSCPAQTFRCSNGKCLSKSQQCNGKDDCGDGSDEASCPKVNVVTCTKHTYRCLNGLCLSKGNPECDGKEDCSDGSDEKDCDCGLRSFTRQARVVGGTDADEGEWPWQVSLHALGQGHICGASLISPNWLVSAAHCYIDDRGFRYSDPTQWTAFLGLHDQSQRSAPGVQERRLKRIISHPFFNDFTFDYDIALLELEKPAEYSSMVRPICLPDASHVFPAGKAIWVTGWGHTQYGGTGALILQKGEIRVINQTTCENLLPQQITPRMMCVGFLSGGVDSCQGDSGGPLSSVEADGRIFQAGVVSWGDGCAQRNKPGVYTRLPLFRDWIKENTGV

KLK1 = KLK1 (Homo sapiens, UniProt P06870); test: in vitro serine protease inhibition profile: KLK1; format: biochemical
Sequence of KLK1 (P06870 25-262, species assumed): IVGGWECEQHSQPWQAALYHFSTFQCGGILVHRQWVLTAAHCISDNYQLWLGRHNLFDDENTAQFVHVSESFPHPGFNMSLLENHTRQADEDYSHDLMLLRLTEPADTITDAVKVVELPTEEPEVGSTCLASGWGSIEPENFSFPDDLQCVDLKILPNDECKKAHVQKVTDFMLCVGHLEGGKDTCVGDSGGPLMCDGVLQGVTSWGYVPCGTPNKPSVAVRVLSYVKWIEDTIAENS

KLK2 = KLK2 (Homo sapiens, UniProt P20151); test: in vitro serine protease inhibition profile: KLK2; format: biochemical
Sequence of KLK2 (P20151 25-261, species assumed): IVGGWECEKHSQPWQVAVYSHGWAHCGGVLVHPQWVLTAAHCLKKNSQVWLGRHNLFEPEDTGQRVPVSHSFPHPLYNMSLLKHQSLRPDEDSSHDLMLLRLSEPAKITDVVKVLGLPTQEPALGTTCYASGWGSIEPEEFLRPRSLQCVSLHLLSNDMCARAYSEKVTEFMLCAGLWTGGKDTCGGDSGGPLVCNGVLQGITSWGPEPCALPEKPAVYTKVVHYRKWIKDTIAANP

KLK4 = KLK4 (Homo sapiens, UniProt Q9Y5K2); test: in vitro serine protease inhibition profile: KLK4; format: biochemical
Sequence of KLK4 (Q9Y5K2 31-254, species assumed): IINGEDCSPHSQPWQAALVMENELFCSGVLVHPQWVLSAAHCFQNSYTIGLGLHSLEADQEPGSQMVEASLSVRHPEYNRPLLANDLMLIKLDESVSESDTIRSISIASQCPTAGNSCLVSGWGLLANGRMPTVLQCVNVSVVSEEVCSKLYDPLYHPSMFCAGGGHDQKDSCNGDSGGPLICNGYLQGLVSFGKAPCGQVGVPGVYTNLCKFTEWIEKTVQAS

KLK8 = molecular target: T3, KLK8 (Homo sapiens, UniProt O60259); test: in vitro serine protease inhibition profile: KLK8; format: biochemical
T3 sequence (O60259 33-260): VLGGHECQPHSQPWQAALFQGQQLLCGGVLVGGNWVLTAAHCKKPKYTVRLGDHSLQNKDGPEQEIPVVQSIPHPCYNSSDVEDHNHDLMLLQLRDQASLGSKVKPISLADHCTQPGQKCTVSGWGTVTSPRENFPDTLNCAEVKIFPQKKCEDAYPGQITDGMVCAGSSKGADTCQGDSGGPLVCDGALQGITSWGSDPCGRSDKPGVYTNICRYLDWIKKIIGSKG

HNE = molecular target: T4, HNE (Homo sapiens, UniProt P08246); test: in vitro serine protease inhibition profile: HNE; format: biochemical
T4 sequence (P08246 30-267): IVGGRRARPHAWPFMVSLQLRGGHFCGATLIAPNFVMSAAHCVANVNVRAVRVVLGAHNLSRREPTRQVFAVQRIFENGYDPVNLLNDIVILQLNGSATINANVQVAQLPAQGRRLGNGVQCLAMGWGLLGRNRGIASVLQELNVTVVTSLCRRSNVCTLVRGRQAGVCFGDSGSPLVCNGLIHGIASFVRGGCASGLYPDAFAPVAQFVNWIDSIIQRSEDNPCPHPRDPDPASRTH

uPA = uPA (Homo sapiens, UniProt P00749); test: in vitro serine protease inhibition profile: uPA; format: biochemical; details: read-out: IC50 uPA
thrombin = molecular target: T5, thrombin (Homo sapiens, UniProt P00734); test: in vitro serine protease inhibition profile: thrombin; format: biochemical; details: read-out: IC50 thrombin
T5 construct: panel of serine proteases: uPA, tPA, thrombin, plasmin, FXIIa

post-colitis rats = test: post-colitis rat model for visceral pain, visceromotor response (VMR) to colorectal distension; details: post-colitis rats, 10 mg/kg
Method: Male Sprague-Dawley rats (200-225 g; Charles River, Italy) were used in all experiments. Rats were housed at a constant room temperature (22±2° C.) and humidity (60%). The animals had unlimited access to water and food and were kept on a 12 h:12 h day-night cycle. They were allowed to acclimatize for at least 1 week before the start of the experiments.
In this set-up, a mild colitis was induced in the post-colitis group on day 0, using a TNBS-enema. The control group received an intrarectal administration with 0.9% NaCl. The presence of colitis was verified by a colonoscopy on day 3. From day 10 onwards, a colonoscopy was performed every 4 days to follow-up the healing of the colonic mucosa. When the colonic mucosa was completely healed, further experiments were performed 3 days later. […] After the VMR measurement, the animals were sacrificed.
TNBS-colitis was induced at day 0 using a TNBS-enema (4 mg TNBS, 50% ethanol). […] Control animals received 0.25 ml 0.9% NaCl intrarectally. The animals were kept in a tail-up position during 1 min and were then allowed to recover in a Trendelenburg position.
Electromyographic (EMG) electrodes were implanted into the external abdominal muscle and 3 days later, the VMR experiment was performed in conscious rats. A lubricated balloon (length 5 cm) was introduced into the colorectum of the animal and connected to a barostat (Distender Series II Barostat, G&J Electronics, Canada). The EMG electrodes were attached to a data-acquisition system and a phasic distension protocol (10-20-30-40-60 mmHg, 20 s, 4 min interval) was sent through the barostat. […] The VMR was quantified using the area under the curve (AUC) of the EMG signal during the distension (20 s) corrected for the EMG signal before the distension (20 s).
22.0. The results of the VMR experiments analyzed using a Generalized Estimating Equations (GEE) test with Least Significant Difference (LSD) post-hoc test. A p-value<0.05 was considered as being statistically significant. The graphs were made with GraphPad Prism 6.0.
Visceral sensitivity was assessed using the visceromotor responses (VMRs) to a colorectal distension, shown in the graphs below as area under the curve (AUC; y-axis; μV.20 s-1) for each distension pressure (x-axis; mmHg). Serine proteases seem to play an important role in the pathogenesis of visceral pain.

cathepsinG = molecular target: T6, cathepsinG (Homo sapiens, UniProt P08311); test: in vitro serine protease inhibition profile: cathepsinG; format: biochemical
T6 sequence (P08311 21-244): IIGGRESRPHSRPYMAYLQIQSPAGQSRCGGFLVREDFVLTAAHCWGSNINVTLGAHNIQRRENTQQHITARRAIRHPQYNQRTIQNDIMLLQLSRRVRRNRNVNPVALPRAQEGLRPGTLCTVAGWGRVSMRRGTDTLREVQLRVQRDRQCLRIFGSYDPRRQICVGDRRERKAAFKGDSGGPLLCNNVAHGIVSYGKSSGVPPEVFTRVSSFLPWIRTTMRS

FXIIa = molecular target: T7, FXIIa (Homo sapiens, UniProt P00748); test: in vitro serine protease inhibition profile: FXIIa; format: biochemical
T7 construct: panel of serine proteases: uPA, tPA, thrombin, plasmin, FXIIa
T7 sequence (P00748 373-615 limits assumed, other chains not shown): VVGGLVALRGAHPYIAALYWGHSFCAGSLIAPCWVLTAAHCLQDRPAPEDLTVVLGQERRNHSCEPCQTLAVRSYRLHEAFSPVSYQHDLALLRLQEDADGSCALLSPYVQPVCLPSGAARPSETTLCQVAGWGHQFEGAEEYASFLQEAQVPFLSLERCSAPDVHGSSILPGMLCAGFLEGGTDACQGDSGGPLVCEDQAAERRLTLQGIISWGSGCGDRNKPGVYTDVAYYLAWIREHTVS

Sequence of tPA (P00750 36-562, species assumed): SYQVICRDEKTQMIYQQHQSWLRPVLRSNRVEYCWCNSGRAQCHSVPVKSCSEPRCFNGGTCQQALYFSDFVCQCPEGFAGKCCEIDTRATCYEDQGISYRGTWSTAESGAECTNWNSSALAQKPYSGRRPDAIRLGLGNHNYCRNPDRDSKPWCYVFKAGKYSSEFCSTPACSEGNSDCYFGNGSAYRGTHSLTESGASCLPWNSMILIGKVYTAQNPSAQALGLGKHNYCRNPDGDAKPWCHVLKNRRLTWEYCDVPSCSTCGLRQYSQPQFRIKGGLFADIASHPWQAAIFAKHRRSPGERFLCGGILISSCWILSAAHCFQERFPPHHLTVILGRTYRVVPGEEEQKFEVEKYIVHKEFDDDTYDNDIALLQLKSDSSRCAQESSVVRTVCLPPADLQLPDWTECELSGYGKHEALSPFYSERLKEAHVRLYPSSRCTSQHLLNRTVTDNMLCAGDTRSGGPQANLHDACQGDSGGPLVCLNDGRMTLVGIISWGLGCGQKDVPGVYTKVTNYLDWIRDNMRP

| Structure (SMILES) | IC50 (tPA) | IC50 (plasmin) | IC50 (tryptase) | IC50 (matriptase) | IC50 (KLK1) | IC50 (KLK2) | IC50 (KLK8) | IC50 (HNE) | also measured |
| --- | --- | --- | --- | --- | --- | --- | --- | --- | --- |
| N=C(N)Nc1ccc(CC(NC(=O)OCc2ccccc2)P(=O)(Oc2ccccc2)Oc2ccccc2)cc1 (centres unmarked) [Compound 3] | > 2500 nM | > 2500 nM | 83 nM | 150 nM | > 2500 nM | 90 nM | 42 nM | > 2500 nM | IC50 (KLK4; read-out: IC50 KLK4): 12 nM |
| N=C(N)c1ccc2cc(OC(=O)c3ccc(N=C(N)N)cc3)ccc2c1 [Nafamostat] | – | – | – | – | – | – | – | – | IC50 (uPA): < 1 nM; IC50 (tPA; read-out: IC50 tPA): > 2500 nM; IC50 (thrombin): ~500000 nM; IC50 (tryptase; read-out: IC50 tryptase): < 1 nM; IC50 (KLK1; read-out: IC50 KLK1): ~1000 nM; IC50 (KLK2; read-out: IC50 KLK2): ~100 nM; IC50 (KLK8; read-out: IC50 KLK8): ~15 nM; IC50 (HNE; read-out: IC50 HNE): > 2500 nM; effect on VMRs (visceral pain) (post-colitis rats): no significant effect on visceral pain could be detected |
| COC(=O)NC(Cc1ccc(NC(=N)N)cc1)P(=O)(Oc1ccc(NC(C)=O)cc1)Oc1ccc(NC(C)=O)cc1 (centres unmarked) [Compound 2] | > 2500 nM | > 2500 nM | 3 nM | 8 nM | > 2500 nM | 315 nM | 13 nM | > 2500 nM | IC50 (cathepsinG): 61 nM; IC50 (KLK4): 26 nM; IC50 (FXIIa): 3140 nM |
